# Source: patent US20080242594A1, “Methods for Promoting Stem Cell Proliferation and Survival” (priority 2005, published 2008)
# Tests used:
# [1] = test system: p38, SMAD1/5/8, MSK-1, STAT3 phosphorylation in hES cells; assay: Signalling immunoblots in hES cells; settings: absence of MEF, within one hour
# Experimental: Immunoblotting: Immunoblotting was performed as previously described (Panchision et al., Genes Dev 15:2094-110, 2001). The following antibodies were used in the experiments described below: pSer473-Akt (92715), pSer308-Akt (9275), pSer2448-mTOR (29715), pThr180/Tyr182-p38 (9211), pSMAD1/5/8 (9511) from Cell Signaling; STAT3 (482), pSer727-STAT3 (8001-R), pTyr705-STAT3 (7993) from Santa Cruz; Sonic Hedgehog (R&D, AF464), nucleostemin (McKay Lab), Hes3 (Chemicon, AB5706), α-tubulin (Sigma, T-6074).
# To determine whether in the hES system JAK inhibition reduced p38 activity, cells were treated in the absence of MEF with JAK inhibitor for different times and assayed for p38 phosphorylation.
# [2] = test system: adult rat subventricular zone (SVZ); assay: Dividing (BrdU+) cells in SVZ after single lateral ventricle injection; assay type: in vivo; settings: BrdU for 3 days, sacrificed on the 5th day
# Experimental: In vivo, Notch and insulin also increase the number of dividing cells in the adult rat subventricular zone (SVZ) 5 days after a single injection It was determined that Notch and insulin co-operate to promote new (BrdU+) cells in vivo. Specifically, the reagents infused in the lateral ventricle of adult rats as a single injection. The rats were then given BrdU for 3 days and sacrificed on the 5th day (Table 10).
# Notch1 = assay: Notch activation (Notch1IC / Notch ICD) immunocytochemical detection; assay type: cell-based, mouse; settings: Insulin withdrawal, 2 days and then treat for 1 h
# From the text: Antibodies were used that specifically bind: Notch1IC (Chemicon, 5352), GFP (Molecular Probes, A11122), Oct3/4 (Santa Cruz, sc-5279), SSEA1 and SSEA4 (Developmental Studies HybridomaBank), Tra-1-60 (Chemicon, MAB4360), Tra-1-81 (Chemicon, MAB4381), human nestin (Chemicon, MAB5326), Sox-1 (Gift from Dr. R Lovell-Badge), TH (Pel-Freez, P40101-0), Tuj1 (Covance, MMS-435P), rat nestin (McKay Lab), GFAP (Dako, z0334), CNPase (Chemicon, MAB326), BrdU (Accurate, H5903), DCX (Santa Cruz, sc-8066), Sox2 (R&D, MAB2018), Hu (Molecular Probes, A21271).
# To assay for Notch activation, cultures were treated with the Notch ligands for 1 hour and Notch1 activation was detected by immunocytochemical staining of Notch1IC (FIG. 1b).
# It was determined that insulin facilitates Notch cleavage using immunocytochemical detection.
# nucleostemin, SHH = assay: Nucleostemin and SHH protein expression in CNS stem cells; assay type: cell-based, mouse
# From the text: The interest in stem cell self-renewal mechanisms prompted analysis of potential down-stream components of the Notch/STAT3-Ser727 (Notch/sSTAT) pathway. Nucleostemin is a p53-binding protein expressed in self-renewing CNS stem cells and cancer cells (Tsai et al., J Neurosci 20:3725-35, 2000; Tsai et al., J Cell Biol 168:179-84, 2005). Sonic Hedgehog (SHH) is a protein with functions in fate specification and stem cell survival in the fetal and adult CNS (Palma et al., Development 132:335-44, 2005).
# There are two forms of mRNA encoded by the Hes3 gene, Hes3a and Hes3b.
# [3] = test system: rat adult subventricular zone central nervous system stem cell cultures; assay: Survival of adult SVZ CNS stem cell cultures with insulin and Dll4; assay type: cell-based
# Experimental: As there was a tight correlation between the Notch survival pathway and Hes3, it was investigated as to whether Hes3 is a mediator of the Notch pro-survival signalling. It was determined that both insulin and Notch activation promote the survival of foetal and adult neural stem cell cultures and their effects are additive (Tables 8-9).
# [4] = test system: murine E13.5 cortical stem cell cultures; assay: Real-time imaging of lineage, death events and cell cycle; assay type: cell-based, mouse; settings: from 4 hours after plating, compared to controls
# Experimental: FIGS. 1a-1f are a set of images showing that Notch ligands stimulate survival in CNS stem cell (CNS SC) cultures. FIG. 1a is a bar graph […] the effect of Notch activation by Jagged-1, Delta-4, or combination in the presence of FGF2 for 5 days on plating efficiency, colony size, and BrdU incorporation (following a 4 hour BrdU pulse), over control treatments (FGF2 alone) FIG. 1b is a graph showing lineage and death events in murine E13.5 cortical stem cell cultures in the presence of FGF2 or FGF2 and Delta-4 (“D4”), D114 inhibits cell death in real-time cell lineage experiments (“x” marks time of death). CNS stem cells from embryonic day 13.5 mouse cerebral cortex were plated following one passage and visualized in real-time for 36 hours (images were taken every 2 min). Lineage and death events are represented. Cells were cultured in a closed gas chamber at 37° C. and images of selected fields were taken every two minutes. FIG. 1c is a line graph showing accumulative real-time imaging representation of death even times over 36 hours in culture with or without Delta-4. […] Cell cycle durations for the first two divisions are shown. FIG. 1e is a bar graph showing Delta-4 treatment of CNS SC cultures replaced the requirement for insulin in the medium in a plating efficiency assay. […] In the graphs, data represent Means ±standard deviation (SD). […]
Compound,p38 phosphorylation [1],Cell # [2],Notch ICD (Notch1),"nucleostemin and SHH protein expression (nucleostemin, SHH)",Cell # [3],death events [4]
"CC(C)(C)c1nc2c3ccc(F)cc3c3c(=O)[nH]ccc3c2[nH]1 [JAK Inhibitor, 2-(1,1-Dimethylethyl)-9-fluoro-3,6-dihydro-7H-benz[h]-imidaz[4,5-f]isoquinolin-7-one]",significantly reduced p38 phosphorylation,–,–,–,–,–
Delta-4: soluble Notch ligand Delta-4 (1389-D4) from R&D,–,High,Low,induced nucleostemin and SHH protein expression,High,very few death events were observed
